Data: ChEMBL document CHEMBL4507261, “Data for DCP probe A-192621” (2021)

Legend:
[1] = target: Translocator protein (Rattus norvegicus) (UniProt P16257); assay: BZD (peripheral) Eurofins-Cerep binding assay; set-up: ligand concentration 0.2 nM; conditions: filed as antagonist, Compound concentration 10.0 uM
[2] = target: 5'-AMP-activated protein kinase catalytic subunit alpha-2 (Homo sapiens) (UniProt P54646); conditions: Compound concentration 1000.0 nM
[3] = target: T1, 5-hydroxytryptamine receptor 2C (Homo sapiens) (UniProt P28335); assay: 5-HT2C (h) Eurofins-Cerep binding assay; set-up: ligand concentration 1 nM; conditions: filed as antagonist, Compound concentration 10.0 uM
T1 sequence (whole entry): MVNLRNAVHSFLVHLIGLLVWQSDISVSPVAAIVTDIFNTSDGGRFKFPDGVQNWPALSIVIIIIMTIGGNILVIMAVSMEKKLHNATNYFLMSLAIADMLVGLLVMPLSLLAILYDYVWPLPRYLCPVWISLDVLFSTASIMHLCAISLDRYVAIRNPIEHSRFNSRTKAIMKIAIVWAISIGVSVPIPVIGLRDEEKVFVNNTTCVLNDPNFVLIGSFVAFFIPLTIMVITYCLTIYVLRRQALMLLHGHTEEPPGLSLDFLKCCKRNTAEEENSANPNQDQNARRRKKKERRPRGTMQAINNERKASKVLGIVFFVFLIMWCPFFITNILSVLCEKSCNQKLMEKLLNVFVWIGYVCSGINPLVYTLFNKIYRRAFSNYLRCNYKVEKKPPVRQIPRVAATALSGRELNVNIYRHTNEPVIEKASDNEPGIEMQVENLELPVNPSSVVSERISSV

[4] = target: T2, Alpha-2A adrenergic receptor (Homo sapiens) (UniProt P08913); assay: Alpha2A (h) Eurofins-Cerep binding assay; conditions: filed as antagonist, Compound concentration 10.0 uM
T2 sequence (whole entry): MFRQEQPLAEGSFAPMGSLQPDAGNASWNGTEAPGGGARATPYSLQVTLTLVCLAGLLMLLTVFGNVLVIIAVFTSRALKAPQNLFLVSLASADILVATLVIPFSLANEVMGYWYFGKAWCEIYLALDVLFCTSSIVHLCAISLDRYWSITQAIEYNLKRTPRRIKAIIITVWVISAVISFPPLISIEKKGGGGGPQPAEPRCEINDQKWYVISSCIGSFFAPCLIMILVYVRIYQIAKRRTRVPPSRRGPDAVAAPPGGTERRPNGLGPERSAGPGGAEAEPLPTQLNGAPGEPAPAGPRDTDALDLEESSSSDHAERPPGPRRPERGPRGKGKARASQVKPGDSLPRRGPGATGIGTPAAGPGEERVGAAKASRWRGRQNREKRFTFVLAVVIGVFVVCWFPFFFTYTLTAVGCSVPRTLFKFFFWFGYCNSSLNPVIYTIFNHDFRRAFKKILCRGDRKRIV

[5] = target: G protein-coupled receptor kinase 3 (Homo sapiens) (UniProt P35626); conditions: Compound concentration 1000.0 nM
[6] = target: Cannabinoid receptor 1 (Homo sapiens) (UniProt P21554); assay: CB1 (h) Eurofins-Cerep binding assay; set-up: ligand concentration 0.5 nM; conditions: filed as agonist, Compound concentration 10.0 uM
[7] = target: Mitogen-activated protein kinase 15 (Homo sapiens) (UniProt Q8TD08); conditions: Compound concentration 1000.0 nM
[8] = target: Serine/threonine-protein kinase tousled-like 1 (Homo sapiens) (UniProt Q9UKI8); conditions: Compound concentration 1000.0 nM
[9] = target: Sodium/potassium-transporting ATPase (Sus scrofa) (UniProt P05027+P05024+D2WKD8+D2WKD7+F1ST41); assay: ATPase (Na+/K+) Eurofins-Cerep enzyme and uptake assay; assay type: protein-complex assay; conditions: Compound concentration 10.0 uM
[10] = target: Urotensin-2 receptor (Homo sapiens) (UniProt Q9UKP6); assay: UT (h) Eurofins-Cerep binding assay; set-up: ligand concentration 0.1 nM; conditions: filed as agonist, Compound concentration 10.0 uM
[11] = target: Serine/threonine-protein kinase Chk1 (Homo sapiens) (UniProt O14757); conditions: Compound concentration 1000.0 nM
[12] = target: Serine/threonine-protein kinase 33 (Homo sapiens) (UniProt Q9BYT3); conditions: Compound concentration 1000.0 nM
[13] = target: Serine/threonine-protein kinase Nek9 (Homo sapiens) (UniProt Q8TD19); conditions: Compound concentration 1000.0 nM
[14] = target: Proto-oncogene tyrosine-protein kinase receptor Ret (Homo sapiens) (UniProt P07949); conditions: Compound concentration 1000.0 nM
[15] = target: Dual specificity testis-specific protein kinase 1 (Homo sapiens) (UniProt Q15569); conditions: Compound concentration 1000.0 nM
[16] = test system: Receptor-type tyrosine-protein kinase FLT3 (Homo sapiens), P36888 [UNDEFINED MUTATION]; conditions: Compound concentration 1000.0 nM
[17] = target: Protein kinase C iota type (Homo sapiens) (UniProt P41743); conditions: Compound concentration 1000.0 nM
[18] = target: Platelet-derived growth factor receptor alpha (Homo sapiens) (UniProt P16234); conditions: Compound concentration 1000.0 nM
[19] = target: Macrophage colony-stimulating factor 1 receptor (Homo sapiens) (UniProt P07333); conditions: Compound concentration 1000.0 nM
[20] = target: Cyclin-dependent kinase-like 2 (Homo sapiens) (UniProt Q92772); conditions: Compound concentration 1000.0 nM
[21] = test system: Receptor-type tyrosine-protein kinase FLT3 (Homo sapiens), P36888 [K663Q]; conditions: Compound concentration 1000.0 nM
[22] = target: Ribosomal protein S6 kinase alpha-2 (Homo sapiens) (UniProt Q15349); conditions: Compound concentration 1000.0 nM
[23] = target: Mitogen-activated protein kinase 9 (Homo sapiens) (UniProt P45984); conditions: Compound concentration 1000.0 nM
[24] = target: Estrogen receptor (Homo sapiens) (UniProt P03372); assay: Estrogen ER alpha (h) Eurofins-Cerep binding assay; set-up: ligand concentration 0.5 nM; conditions: filed as agonist, Compound concentration 10.0 uM
[25] = target: Mitogen-activated protein kinase 14 (Homo sapiens) (UniProt Q16539); conditions: Compound concentration 1000.0 nM
[26] = target: Insulin receptor-related protein (Homo sapiens) (UniProt P14616); conditions: Compound concentration 1000.0 nM
[27] = target: Vasoactive intestinal polypeptide receptor 1 (Homo sapiens) (UniProt P32241); assay: VPAC1 (VIP1) (h) Eurofins-Cerep binding assay; set-up: ligand concentration 0.04 nM; conditions: filed as agonist, Compound concentration 10.0 uM
[28] = target: Interleukin-1 receptor-associated kinase 1 (Homo sapiens) (UniProt P51617); conditions: Compound concentration 1000.0 nM
[29] = target: Tyrosine-protein kinase Fer (Homo sapiens) (UniProt P16591); conditions: Compound concentration 1000.0 nM
[30] = target: MAO-B (amine oxidase [flavin-containing] B) (Homo sapiens, UniProt P27338); assay: MAO-B (h) recombinant enzyme Eurofins-Cerep enzyme and uptake assay; set-up: incubation time 60 min, incubation temperature 37°C, substrate/stimulus/tracer D-Luciferin derivative (4 µM); conditions: probe D-Luciferin derivative (4 µM), compound concentration 10 uM, read-out: % Inhibition of Control Values (Mean n=2)
[31] = target: Ribosomal protein S6 kinase alpha-3 (Homo sapiens) (UniProt P51812); conditions: Compound concentration 1000.0 nM

Dual specificity testis-specific protein kinase 1 (Homo sapiens), sequence (Q15569 whole entry, looked up): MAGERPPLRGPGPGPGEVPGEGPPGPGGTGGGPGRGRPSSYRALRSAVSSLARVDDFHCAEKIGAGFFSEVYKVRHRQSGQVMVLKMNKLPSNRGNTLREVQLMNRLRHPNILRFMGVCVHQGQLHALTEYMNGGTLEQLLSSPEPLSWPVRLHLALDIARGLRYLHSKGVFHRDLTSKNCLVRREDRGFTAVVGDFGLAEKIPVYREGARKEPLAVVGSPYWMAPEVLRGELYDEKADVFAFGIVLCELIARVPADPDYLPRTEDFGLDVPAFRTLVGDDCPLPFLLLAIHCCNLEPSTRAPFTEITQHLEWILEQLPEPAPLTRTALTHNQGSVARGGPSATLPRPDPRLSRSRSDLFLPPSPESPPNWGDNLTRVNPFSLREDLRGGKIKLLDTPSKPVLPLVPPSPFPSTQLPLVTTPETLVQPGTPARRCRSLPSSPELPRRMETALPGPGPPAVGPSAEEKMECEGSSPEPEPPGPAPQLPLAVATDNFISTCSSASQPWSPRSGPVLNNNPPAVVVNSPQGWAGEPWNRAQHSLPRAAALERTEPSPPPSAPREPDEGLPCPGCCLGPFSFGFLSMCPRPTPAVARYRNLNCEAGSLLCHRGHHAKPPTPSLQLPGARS
Mitogen-activated protein kinase 15 (Homo sapiens), sequence (Q8TD08 whole entry): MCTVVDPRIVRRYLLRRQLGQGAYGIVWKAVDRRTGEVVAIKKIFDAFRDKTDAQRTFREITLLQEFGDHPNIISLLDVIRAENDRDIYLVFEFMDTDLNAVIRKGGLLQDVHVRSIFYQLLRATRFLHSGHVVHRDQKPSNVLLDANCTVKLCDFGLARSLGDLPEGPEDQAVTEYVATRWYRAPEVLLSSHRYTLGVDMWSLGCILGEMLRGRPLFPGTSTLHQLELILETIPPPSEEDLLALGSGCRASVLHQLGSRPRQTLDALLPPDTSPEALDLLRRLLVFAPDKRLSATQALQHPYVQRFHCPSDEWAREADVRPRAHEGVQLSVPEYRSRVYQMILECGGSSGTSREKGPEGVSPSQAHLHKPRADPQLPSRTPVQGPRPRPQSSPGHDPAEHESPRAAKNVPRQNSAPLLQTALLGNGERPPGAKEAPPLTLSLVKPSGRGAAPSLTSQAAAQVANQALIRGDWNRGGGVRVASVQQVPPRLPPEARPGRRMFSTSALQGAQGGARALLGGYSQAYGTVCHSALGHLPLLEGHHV
Serine/threonine-protein kinase Nek9 (Homo sapiens), sequence (Q8TD19 whole entry): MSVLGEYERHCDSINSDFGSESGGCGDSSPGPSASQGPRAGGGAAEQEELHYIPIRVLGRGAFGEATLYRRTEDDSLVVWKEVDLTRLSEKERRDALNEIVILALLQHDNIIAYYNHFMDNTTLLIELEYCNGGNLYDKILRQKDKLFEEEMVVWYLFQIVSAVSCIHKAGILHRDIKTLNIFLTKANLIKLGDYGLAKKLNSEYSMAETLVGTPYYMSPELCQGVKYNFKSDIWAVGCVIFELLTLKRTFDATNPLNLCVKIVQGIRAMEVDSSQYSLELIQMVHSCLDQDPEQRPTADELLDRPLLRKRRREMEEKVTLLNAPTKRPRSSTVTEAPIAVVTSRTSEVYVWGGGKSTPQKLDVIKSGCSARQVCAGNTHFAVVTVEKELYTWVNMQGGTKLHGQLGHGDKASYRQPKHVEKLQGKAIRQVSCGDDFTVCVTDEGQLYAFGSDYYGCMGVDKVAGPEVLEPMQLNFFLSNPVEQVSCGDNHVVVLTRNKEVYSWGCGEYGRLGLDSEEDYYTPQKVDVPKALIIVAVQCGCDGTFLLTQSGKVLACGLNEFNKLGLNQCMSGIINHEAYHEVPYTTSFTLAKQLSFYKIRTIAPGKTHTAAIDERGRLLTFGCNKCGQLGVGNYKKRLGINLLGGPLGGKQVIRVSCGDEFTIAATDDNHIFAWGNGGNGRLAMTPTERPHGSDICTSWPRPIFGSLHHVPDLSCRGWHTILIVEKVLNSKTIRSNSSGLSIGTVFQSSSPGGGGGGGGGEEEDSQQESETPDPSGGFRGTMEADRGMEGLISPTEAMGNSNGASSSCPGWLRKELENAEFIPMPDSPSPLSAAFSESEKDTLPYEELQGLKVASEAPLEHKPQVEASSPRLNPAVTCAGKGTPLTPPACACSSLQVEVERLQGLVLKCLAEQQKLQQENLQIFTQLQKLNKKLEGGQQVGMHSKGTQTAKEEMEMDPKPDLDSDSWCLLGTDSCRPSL
Protein kinase C iota type (Homo sapiens), sequence (P41743 whole entry): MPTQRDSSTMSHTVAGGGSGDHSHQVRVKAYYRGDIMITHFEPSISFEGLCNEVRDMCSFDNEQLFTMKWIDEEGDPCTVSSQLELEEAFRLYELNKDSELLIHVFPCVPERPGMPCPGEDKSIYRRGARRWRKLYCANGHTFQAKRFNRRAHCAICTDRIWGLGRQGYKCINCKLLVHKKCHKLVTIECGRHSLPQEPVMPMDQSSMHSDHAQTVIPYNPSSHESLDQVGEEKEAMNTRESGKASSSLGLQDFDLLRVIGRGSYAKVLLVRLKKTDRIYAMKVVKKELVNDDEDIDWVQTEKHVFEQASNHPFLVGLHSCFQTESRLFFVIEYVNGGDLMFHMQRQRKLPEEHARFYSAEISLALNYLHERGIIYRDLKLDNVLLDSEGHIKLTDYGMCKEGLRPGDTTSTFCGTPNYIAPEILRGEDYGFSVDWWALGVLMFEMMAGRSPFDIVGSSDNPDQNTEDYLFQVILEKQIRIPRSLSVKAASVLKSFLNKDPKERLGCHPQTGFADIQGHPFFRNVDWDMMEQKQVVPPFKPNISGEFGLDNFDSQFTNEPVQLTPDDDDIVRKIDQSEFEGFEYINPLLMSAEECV
Interleukin-1 receptor-associated kinase 1 (Homo sapiens), sequence (P51617 whole entry, looked up): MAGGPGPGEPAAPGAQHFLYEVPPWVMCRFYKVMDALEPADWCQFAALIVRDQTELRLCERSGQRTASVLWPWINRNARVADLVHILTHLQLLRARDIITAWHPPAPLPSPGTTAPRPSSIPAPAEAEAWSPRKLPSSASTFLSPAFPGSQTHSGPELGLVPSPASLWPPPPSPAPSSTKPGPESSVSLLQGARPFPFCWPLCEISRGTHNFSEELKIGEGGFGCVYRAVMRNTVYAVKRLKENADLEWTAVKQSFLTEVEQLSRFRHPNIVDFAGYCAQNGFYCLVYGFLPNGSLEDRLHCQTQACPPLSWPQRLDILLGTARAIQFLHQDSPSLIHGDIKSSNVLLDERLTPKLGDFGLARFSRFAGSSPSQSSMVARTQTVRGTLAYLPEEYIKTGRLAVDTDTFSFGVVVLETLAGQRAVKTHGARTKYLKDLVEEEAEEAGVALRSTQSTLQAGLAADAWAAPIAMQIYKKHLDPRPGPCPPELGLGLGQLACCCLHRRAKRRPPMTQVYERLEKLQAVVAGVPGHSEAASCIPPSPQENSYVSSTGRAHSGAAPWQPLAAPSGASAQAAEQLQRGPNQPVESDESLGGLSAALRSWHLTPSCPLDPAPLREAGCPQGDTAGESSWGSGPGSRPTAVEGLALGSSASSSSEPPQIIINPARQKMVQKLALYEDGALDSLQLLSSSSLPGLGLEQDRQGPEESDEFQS
MAO-B (amine oxidase [flavin-containing] B), sequence (P27338 whole entry): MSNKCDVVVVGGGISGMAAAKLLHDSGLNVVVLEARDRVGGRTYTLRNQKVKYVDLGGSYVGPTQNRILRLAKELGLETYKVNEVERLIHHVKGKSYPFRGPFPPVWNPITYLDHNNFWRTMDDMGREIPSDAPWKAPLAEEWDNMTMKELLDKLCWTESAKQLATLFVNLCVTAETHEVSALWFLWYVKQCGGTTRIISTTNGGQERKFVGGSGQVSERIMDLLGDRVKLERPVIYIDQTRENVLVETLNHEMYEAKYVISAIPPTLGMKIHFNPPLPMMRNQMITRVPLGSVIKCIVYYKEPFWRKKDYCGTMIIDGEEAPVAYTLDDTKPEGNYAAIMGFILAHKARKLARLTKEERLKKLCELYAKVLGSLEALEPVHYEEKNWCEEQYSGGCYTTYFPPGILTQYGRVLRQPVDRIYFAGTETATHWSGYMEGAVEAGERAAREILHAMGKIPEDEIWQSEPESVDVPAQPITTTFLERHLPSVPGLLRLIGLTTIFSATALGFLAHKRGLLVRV
Macrophage colony-stimulating factor 1 receptor (Homo sapiens), sequence (P07333 whole entry): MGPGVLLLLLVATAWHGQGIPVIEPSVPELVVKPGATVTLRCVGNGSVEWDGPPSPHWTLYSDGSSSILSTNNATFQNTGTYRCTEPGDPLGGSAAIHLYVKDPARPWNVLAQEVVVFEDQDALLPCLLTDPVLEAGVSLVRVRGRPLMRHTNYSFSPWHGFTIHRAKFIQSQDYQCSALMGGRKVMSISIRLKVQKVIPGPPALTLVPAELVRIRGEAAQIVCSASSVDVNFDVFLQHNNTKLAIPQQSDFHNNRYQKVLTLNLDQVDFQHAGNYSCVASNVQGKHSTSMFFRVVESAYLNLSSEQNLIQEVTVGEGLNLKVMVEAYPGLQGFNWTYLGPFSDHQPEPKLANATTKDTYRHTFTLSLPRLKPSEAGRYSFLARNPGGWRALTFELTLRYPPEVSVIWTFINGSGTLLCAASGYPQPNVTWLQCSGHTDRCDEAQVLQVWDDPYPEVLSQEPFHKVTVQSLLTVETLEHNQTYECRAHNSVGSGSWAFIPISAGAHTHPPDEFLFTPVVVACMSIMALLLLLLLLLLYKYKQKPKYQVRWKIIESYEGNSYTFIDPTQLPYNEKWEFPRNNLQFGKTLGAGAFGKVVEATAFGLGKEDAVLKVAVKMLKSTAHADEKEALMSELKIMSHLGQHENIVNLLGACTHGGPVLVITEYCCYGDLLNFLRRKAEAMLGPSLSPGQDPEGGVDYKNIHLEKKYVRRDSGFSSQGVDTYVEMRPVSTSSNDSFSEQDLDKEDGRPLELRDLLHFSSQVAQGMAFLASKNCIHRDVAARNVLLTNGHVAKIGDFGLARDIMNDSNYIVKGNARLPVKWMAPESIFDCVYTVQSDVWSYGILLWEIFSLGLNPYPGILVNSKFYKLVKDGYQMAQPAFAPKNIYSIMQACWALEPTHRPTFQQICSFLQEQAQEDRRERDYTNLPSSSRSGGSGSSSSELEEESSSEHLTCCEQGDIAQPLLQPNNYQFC

SMILES | % Inhibition of Control Specific Binding (Mean n=2) [1] [%] | residual activity [2] [%] | residual activity [5] [%] | % Inhibition of Control Specific Binding (Mean n=2) [6] [%] | residual activity [7] [%] | residual activity [8] [%] | % Inhibition of Control Values (Mean n=2) [9] [%] | % Inhibition of Control Specific Binding (Mean n=2) [10] [%] | residual activity [11] [%] | residual activity [12] [%] | residual activity [13] [%] | residual activity [14] [%] | residual activity [15] [%] | residual activity [16] [%] | residual activity [17] [%] | residual activity [18] [%] | residual activity [19] [%] | residual activity [20] [%] | residual activity [21] [%] | residual activity [22] [%] | also measured
CCCOc1ccc([C@@H]2[C@@H](C(=O)O)[C@H](c3ccc4c(c3)OCO4)CN2CC(=O)Nc2c(CC)cccc2CC)cc1 [A-1806262] | 54.7 | 95 | 100 | -1.6 | 100 | 77 | 0.6 | 9.4 | 86 | 69 | 100 | 97 | 100 | 61 | 80 | 76 | 90 | 96 | 100 | 81 | % Inhibition of Control Specific Binding [3]: 0%; % Inhibition of Control Specific Binding (Mean n=2) [4]: -7.1%; residual activity [23]: 80%; % Inhibition of Control Specific Binding (Mean n=2) [24]: -0.8%; residual activity [25]: 100%; residual activity [26]: 100%; % Inhibition of Control Specific Binding (Mean n=2) [27]: -1.5%; residual activity [28]: 96%; residual activity [29]: 100%; inhibition at 60 min, 10 µM [30]: -14.5%; residual activity [31]: 95%
CCCOc1ccc([C@H]2[C@H](C(=O)O)[C@@H](c3ccc4c(c3)OCO4)CN2CC(=O)Nc2c(CC)cccc2CC)cc1 [A-192621] | 72.1 | 100 | 73 | 15.4 | 100 | 74 | 0.7 | 23.9 | 98 | 65 | 95 | 86 | 89 | 59 | 78 | 80 | 61 | 84 | 100 | 82 | % Inhibition of Control Specific Binding (Mean n=2) [3]: 1.2%; % Inhibition of Control Specific Binding [4]: -2.4%; residual activity [23]: 65%; % Inhibition of Control Specific Binding (Mean n=2) [24]: -1.1%; residual activity [25]: 99%; residual activity [26]: 94%; % Inhibition of Control Specific Binding (Mean n=2) [27]: -7.7%; residual activity [28]: 67%; residual activity [29]: 100%; inhibition at 60 min, 10 µM [30]: -12.3%; residual activity [31]: 72%
